Consider one compound from ChEMBL document CHEMBL3392983, “Synthesis, antimicrobial activity and molecular docking of novel tetracyclic scaffolds incorporating a flavonoid framework with medium sized oxygen heterocycles” (2015).

Molecules are shown by their SMILES. ≈ marks a conversion by molar mass, not a printed value.

Common to all, as to assay type: functional
Test [1] has as its system Escherichia coli. As to the kind of experiment: Bactericidal activity against Escherichia coli ATCC 10536 assessed as microbial killing during 18 hrs post sub-culture onto drug-free solid media by broth dilution method. The following applies: ATCC 10536, 18 h, read-out: MBC99.9. (In general: Dilution methods test growth across graded concentrations, often in twofold steps.)

The subject of test [2] is Klebsiella pneumoniae. The test can be described thus: Antimicrobial activity against Klebsiella pneumoniae ATCC 10031 assessed as inhibition of microbial growth incubated for 24 hrs by broth dilution method. The following applies: ATCC 10031, 24 h.
The test system of test [3] is Candida albicans. The test can be described thus: Antimicrobial activity against Candida albicans ATCC 10231 assessed as inhibition of microbial growth incubated for 72 hrs by broth dilution method. The following applies: ATCC 10231, 72 h.
The subject of test [4] is Staphylococcus aureus. The test can be described thus: Bactericidal activity against Staphylococcus aureus ATCC 25923 assessed as microbial killing during 18 hrs post sub-culture onto drug-free solid media by broth dilution method. The following applies: ATCC 25923, 18 h, read-out: MBC99.9.
For test [5], the system named is Bacillus subtilis. The test can be described thus: Bactericidal activity against Bacillus subtilis ATCC 6633 assessed as microbial killing during 18 hrs post sub-culture onto drug-free solid media by broth dilution method. The following applies: ATCC 6633, 18 h, read-out: MBC99.9.
Test [6] relates to Staphylococcus aureus. As to the kind of experiment: Antimicrobial activity against Staphylococcus aureus ATCC 25923 assessed as inhibition of microbial growth incubated for 24 hrs by broth dilution method. The following applies: ATCC 25923, 24 h.
The subject of test [7] is Escherichia coli. As to the kind of experiment: Antimicrobial activity against Escherichia coli ATCC 10536 assessed as inhibition of microbial growth incubated for 24 hrs by broth dilution method. The following applies: ATCC 10536, 24 h.
Test [8] deals with Pseudomonas aeruginosa. The test can be described thus: Bactericidal activity against Pseudomonas aeruginosa ATCC 10145 assessed as microbial killing during 18 hrs post sub-culture onto drug-free solid media by broth dilution method. To be noted: ATCC 10145, 18 h, read-out: MBC99.9.
Test [9] relates to Pseudomonas aeruginosa. As to the kind of experiment: Antimicrobial activity against Pseudomonas aeruginosa ATCC 10145 assessed as inhibition of microbial growth incubated for 24 hrs by broth dilution method. To be noted: ATCC 10145, 24 h.
The test system of test [10] is Bacillus subtilis. The test can be described thus: Antimicrobial activity against Bacillus subtilis ATCC 6633 assessed as inhibition of microbial growth incubated for 24 hrs by broth dilution method. The following applies: ATCC 6633, 24 h.
Test [11] has as its system Candida tropicalis. As to the kind of experiment: Antimicrobial activity against Candida tropicalis ATCC 750 assessed as inhibition of microbial growth incubated for 72 hrs by broth dilution method. The following applies: ATCC 750, 72 h.

As usually defined, the MIC is the lowest concentration found to suppress growth. As for `O=c1c2c(oc3ccc(Cl)cc13)-c1ccccc1OCCCCCO2`, the MBC in test [1] was 0.034 µM (≈ 0.0121 µg/mL); in test [4], 0.088 µM (≈ 0.0314 µg/mL); in test [5] it was 0.014 µM (≈ 0.005 µg/mL); in [8], 0.028 µM (≈ 0.00999 µg/mL). Moreover, the MIC in test [2] was 0.028 µM; in [3], more than 0.561 µM; in [6], 0.14 µM; in [7], 0.057 µM; in test [9] it was 0.07 µM; in test [10] it was 0.028 µM. Further, the MIC in test [11] is more than 0.561 µM.
